# Assay results published in paper PMC10414762, “Gene amplifications cause high-level resistance against albicidin in gram-negative bacteria” (PLOS Biology, 2023).
# Target: T1, STM3175 (YgiV) (Salmonella enterica, UniProt Q8ZM00)
# T1 construct: full-length STM3175 (288 aa)
# Assay: tryptophan fluorescence quenching titration
# Assay type: binding
# Source text: tryptophan fluorescence quenching titration on STM3175 (YgiV) | Fluorescence quenching of STM3175 plotted as a function of increasing azahistidine albicidin concentration.
# T1 sequence (Q8ZM00 whole entry): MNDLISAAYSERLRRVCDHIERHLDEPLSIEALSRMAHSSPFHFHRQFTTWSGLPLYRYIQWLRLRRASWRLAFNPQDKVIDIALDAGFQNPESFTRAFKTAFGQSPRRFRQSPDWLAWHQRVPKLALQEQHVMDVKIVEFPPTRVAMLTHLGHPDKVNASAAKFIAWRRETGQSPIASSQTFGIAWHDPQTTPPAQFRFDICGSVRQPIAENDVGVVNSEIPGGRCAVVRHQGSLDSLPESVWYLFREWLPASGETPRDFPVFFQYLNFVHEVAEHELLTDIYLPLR
structure (smiles),measurement,value
COc1c(NC(=O)c2ccc(NC(=O)c3ccc(NC(=O)[C@H](Cc4c[nH]nn4)NC(=O)c4ccc(NC(=O)/C(C)=C/c5ccc(O)cc5)cc4)cc3)c(OC)c2O)ccc(C(=O)O)c1O [azahistidine albicidin],Kd,170 ± 10 nM
